Laboratory results: publication PMC8327158, “PEGylated AdipoRon derivatives improve glucose and lipid metabolism under insulinopenic and high-fat diet conditions” (Journal of Lipid Research, 2021)

Tested on: HFD-fed wild-type mice
Assay: Sphingolipid levels in tissues and serum of HFD-fed mice by mass spectrometry
Assay type: in vivo, mouse
Details: average ± SD
Experimental: Six-week-old wild-type male mice were fed HFD for 4 weeks or 7 months In total, 5 mg/Kg of PBS, Adiporon, AdipoRonPEG5, AdipoRonPEG6HTL were injected twice a day for 5 days. After 5 days of treatment, systemic test is performed, and serum (Before and after treatment), subcutaneous, epididymal, liver, heart samples were harvested for qPCR and sphingolipid analysis.
Flash-frozen tissue samples (~40 mg) in a borosilicate glass tube were quenched with 2.0 ml of organic extraction solvent (isopropanol: ethyl acetate, 15:85; v:v) and homogenized with a mechanical tissue disruptor. Immediately afterward, 20 μl of organic internal standard solution was added (Ceramide/Sphingoid Internal Standard Mixture II diluted 1:10 in ethanol). The mixture was vortexed for 20 s and sonicated in ultrasonic bath for 40 min at 40°C. The organic extract was allowed to reach room temperature, and 1.5 ml of HPLC water was added and a two-phase liquid-liquid extraction was performed. The upper phase was transferred to a new clean tube, and the lower aqueous phase containing the protein pellet was re-extracted with additional 2.0 ml of organic extraction solvent. The organic phases were combined and dried under nitrogen stream at 40°C. Dried extracts were stored at –80°C until analysis. For analysis of ceramides and sphingoid base species, the dried residues were reconstituted in 200 μl of methanol. Sphingomyelins required a sample dilution of 1:50 in methanol prior to analysis. Serum sphingolipids were extracted using a similar methodology requiring 25 μl of serum.
Liver, subcutaneous adipose tissue, pancreas, pancreatic islets were initially homogenized in 500 μl of cold PBS using an ultrasonic probe disruptor and keeping the sample on ice during sonication. In total, 50 μl of aqueous homogenate was aliquoted for protein determination. In total, 400 μl of the lysate was immediately quenched in 2.0 ml of organic extraction solvent.
In total, 5 μl of reconstituted samples was injected into an LC/MS/MS system for the analysis of ceramides and sphingoid bases, and 1 μl injection was required for the analysis of sphingomyelins. The system consisted of a Shimadzu LCMS-8050 triple-quadrupole mass spectrometer with the dual ion source operating in electrospray positive ionization mode. The mass spectrometer is coupled to a Shimadzu Nexera X2 UHPLC system equipped with three solvent delivery modules LC-30AD, three degassing units DGU-20A5R, an autosampler SIL-30ACMP, and a column oven CTO-20AC operating at 40°C (Shimadzu Scientific Instruments, Columbia, MD). Six sphingoid bases (d18:1 sphingosine, d18:1 sphingosine-1-phosphate, d18:1 deoxysphingosine, d18:0 sphinganine, d18:0 sphinganine-1-phosphate, d18:0 deoxysphinganine) and […] ceramide species and their metabolites (C16:0, C16:0 dihydroceramide, C16:0 glucosylceramide, C16:0 lactosylceramide, C16:0 sphingomyelin, C18:0, C18:0 dihydroceramide, C18:0 glucosylceramide, C18:0 sphingomyelin, C18:1, C20:0, C22:0, C22:0 glucosylceramide, C24:0, C24:0 dihydroceramide, C24:0 lactosylceramide, C24:0 sphingomyelin, C24:1, C24:1 dihydroceramide, C24:1 glucosylceramide, C24:1 sphingomyelin). Quantitative analysis of sphingolipids was achieved using selective reaction monitoring scan mode. Lipid separation was achieved by reverse phase LC on a 2.1 (i.d.) × 150 mm Ascentis Express C8, 2.7 micron (Supelco, Bellefonte, PA) column under gradient elution, using three different mobile phases: eluent A consisting of methanol/water/formic acid, 600/400/0.8, v/v/v with 5 mM ammonium formate, eluent B consisting of methanol/formic acid, 1,000/0.8, v/v with 5 mM ammonium formate, and eluent C consisting of CH3OH/CH2Cl2 350/650. The concentration of each metabolite was determined according to calibration curves using the peak-area ratio of analyte versus corresponding internal standard. Calibration curves were generated using serial dilutions of each target analyte.

[1] = scWAT, 5 mg/kg twice a day 5 days
[2] = serum at day 0 (before treatment)
[3] = serum at day 5, 5 mg/kg twice a day 5 days

O=C(COc1ccc(C(=O)c2ccccc2)cc1)NC1CCN(Cc2ccccc2)CC1 [AdipoRon]
Hexosyl 20:0 [1]: 615610.3 ± 235007.39 pg/mg | Hexosyl 22:0 [1]: 6375434.2 ± 2782528.88 pg/mg | Hexosyl 24:0 [1]: 21878746.0 ± 11579620.12 pg/mg | Hexosyl 24:1 [1]: 11496554.3 ± 5647659.03 pg/mg | Lactosyl 16:0 [1]: 45792.6 ± 45798.33 pg/mg | Lactosyl 18:0 [1]: 0.0 ± 0.0 pg/mg | Lactosyl 22:0 [1]: 49816.7 ± 23898.61 pg/mg | Lactosyl 24:1 [1]: 86367.6 ± 22529.94 pg/mg | Lactosyl C24:0 [1]: 55460.5 ± 33843.98 pg/mg | Sphingaine1P [1]: 35443.6 ± 15686.23 pg/mg | Sphinganine [1]: 29337.6 ± 16700.68 pg/mg | Sphingosine [1]: 49182.2 ± 32181.22 pg/mg | Sphingosine1P [1]: 37612.5 ± 17941.43 pg/mg | dCer 16:0 [1]: 14580.7 ± 4393.04 pg/mg | dCer 18:0 [1]: 17597.9 ± 5214.49 pg/mg | dCer 20:0 [1]: 80869.1 ± 48824.3 pg/mg | dCer 22:0 [1]: 84488 ± 14825 pg/mg | dCer 24:0 [1]: 96632.5 ± 27938.2 pg/mg | dCer 24:1 [1]: 93338.7 ± 29289.58 pg/mg | Cer 14:0 [2]: 8402.0 ± 1707.95 pg/mg | Cer 16:0 [2]: 25341.1 ± 4464.54 pg/mg | Cer 18:0 [2]: 10061.4 ± 1406.12 pg/mg | Cer 18:1 [2]: 0 pg/mg | Cer 20:0 [2]: 144673.7 ± 32033.84 pg/mg | Cer 22:0 [2]: 2303972.0 ± 309633.22 pg/mg | Cer 24:0 [2]: 1443539.8 ± 157739.65 pg/mg | Cer 24:1 [2]: 986691.7 ± 101968.89 pg/mg | Cer 26:0 [2]: 10057.2 ± 2818.25 pg/mg | Cer 26:1 [2]: 0 pg/mg | DeoxySphinganie [2]: 0.0 ± 0.0 pg/mg | Deoxysphingosine [2]: 0.0 ± 0.0 pg/mg | Hexosyl 14:0 [2]: 2960.2 ± 601.74 pg/mg | Hexosyl 16:0 [2]: 3024488.2 ± 155463.13 pg/mg | Hexosyl 18:0 [2]: 47892.4 ± 4333.97 pg/mg | Hexosyl 20:0 [2]: 182974.2 ± 30498.44 pg/mg | Hexosyl 22:0 [2]: 12192915.9 ± 1475247.57 pg/mg | Hexosyl 24:0 [2]: 1341147.2 ± 57498.17 pg/mg | Hexosyl 24:1 [2]: 3535698.6 ± 346272.3 pg/mg | Lactosyl 16:0 [2]: 94073.6 ± 8945.71 pg/mg | Lactosyl 18:0 [2]: 0.0 ± 0.0 pg/mg | Lactosyl 22:0 [2]: 60785.8 ± 9718.01 pg/mg | Lactosyl 24:1 [2]: 85880.2 ± 22412.15 pg/mg | Lactosyl C24:0 [2]: 103502.4 ± 17366.51 pg/mg | Sphingaine1P [2]: 250934.3 ± 36218.42 pg/mg | Sphinganine [2]: 45226.5 ± 8665.07 pg/mg | Sphingosine [2]: 43193.4 ± 8183.0 pg/mg | Sphingosine1P [2]: 774207.2 ± 25661.64 pg/mg | dCer 16:0 [2]: 16437.5 ± 2669.42 pg/mg | dCer 18:0 [2]: 10213.1 ± 2375.68 pg/mg | dCer 20:0 [2]: 3716.7 ± 0.0 pg/mg | dCer 22:0 [2]: 335078.3 ± 58715.16 pg/mg | dCer 24:0 [2]: 212159.3 ± 42613.52 pg/mg | dCer 24:1 [2]: 111963.9 ± 12779.64 pg/mg | Cer 14:0 [3]: 9165.8 ± 853.97 pg/mg | Cer 16:0 [3]: 17212.8 ± 1488.18 pg/mg | Cer 18:0 [3]: 8049.1 ± 1033.29 pg/mg | Cer 18:1 [3]: 0 pg/mg | Cer 20:0 [3]: 135037.6 ± 17909.21 pg/mg | Cer 22:0 [3]: 1736100.3 ± 185474.31 pg/mg | Cer 24:0 [3]: 1412623.3 ± 289722.52 pg/mg | Cer 24:1 [3]: 771667.5 ± 65564.62 pg/mg | Cer 26:0 [3]: 11959.9 ± 2614.25 pg/mg | Cer 26:1 [3]: 0 pg/mg | DeoxySphinganie [3]: 0.0 ± 0.0 pg/mg | Deoxysphingosine [3]: 0.0 ± 0.0 pg/mg | Hexosyl 14:0 [3]: 2960.2 ± 601.74 pg/mg | Hexosyl 16:0 [3]: 3736352.2 ± 191696.45 pg/mg | Hexosyl 18:0 [3]: 63748.7 ± 18002.6 pg/mg | Hexosyl 20:0 [3]: 245486.5 ± 74132.09 pg/mg | Hexosyl 22:0 [3]: 9390882.1 ± 688490.25 pg/mg | Hexosyl 24:0 [3]: 1430423.2 ± 157556.06 pg/mg | Hexosyl 24:1 [3]: 3036231.9 ± 367214.43 pg/mg | Lactosyl 16:0 [3]: 94265.2 ± 16983.56 pg/mg | Lactosyl 18:0 [3]: 0.0 ± 0.0 pg/mg | Lactosyl 22:0 [3]: 58253.0 ± 5503.82 pg/mg | Lactosyl 24:1 [3]: 124049.2 ± 19300.14 pg/mg | Lactosyl C24:0 [3]: 122340.7 ± 11760.71 pg/mg | Sphingaine1P [3]: 423112.6 ± 48511.44 pg/mg | Sphinganine [3]: 11725.4 ± 1939.02 pg/mg | Sphingosine [3]: 18235.7 ± 1946.06 pg/mg | Sphingosine1P [3]: 1139765.2 ± 69403.83 pg/mg | dCer 16:0 [3]: 7198.9 ± 1199.82 pg/mg | dCer 18:0 [3]: 4034.8 ± 845.83 pg/mg | dCer 20:0 [3]: 2973.3 ± 1017.85 pg/mg | dCer 22:0 [3]: 174957.8 ± 18878.67 pg/mg | dCer 24:0 [3]: 105210.1 ± 6589.37 pg/mg | dCer 24:1 [3]: 49553.1 ± 7051.68 pg/mg
